From PMC11876601 (Molecular Systems Biology, 2025)
pEC50: −log10 of the molar value. “And” between values parts separate entries of the source, which are not always exact repeats. Equal values may be shown once. Read-outs that look alike come from different tables or passages of the source.

Assays:
[1] = tested on: PANC-1 cells; assay: Cell proliferation assay, GEM + ATR inhibitor (Incucyte confluence, 72 h); conditions: for EC50: Homo sapiens, mean of replicates; for Curve top: PANC-1, plateau of fitted curve, ratio drug/vehicle confluence;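 for all read-outs here: PANC-1 confluence at 72 h taken as raw values, not normalized to starting confluence, with each experiment run in triplicate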;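 for pEC50: in combination experiments GEM is titrated while ATRi is held at a fixed sub-EC50 dose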
Protocol: (§1) Cells were seeded at 5000 cells/well into 96-well flat bottom plates (Eppendorf) and allowed to attach overnight. […] Cells were incubated for 72 h at 37 °C and 5% CO2. Cell confluence readouts at 72 h were either normalized to their initial confluence using the Incucyte software (AsPC-1) or used without prior normalization (all others). […] Each experiment was performed in triplicates, the data was plotted as mean ± standard deviation (s.d.).

[2] = tested on: AsPC-1 cells; assay: Cell proliferation assay, chemodrug + ATR inhibitor (Incucyte confluence, 72 h); conditions: for Curve slope / Curve bottom / Curve top: fitted dose-response curve; for Curve bottom / Curve top: relative response; for pEC50 / EC50: Homo sapiens;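 for all read-outs here: underlying read-out for every value is AsPC-1 confluence after 72 h incubation at 37 °C and 5% CO2, divided by that well's starting confluence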
Protocol: as §1

[3] = AsPC1, Experiment ATRi (ATR inhibitor alone)
[4] = AsPC1, Experiment GEM+ATRi_dose1
[5] = AsPC1, Experiment GEM+ATRi_dose2
[6] = AsPC1, Experiment GEM+ATRi_dose3

C[C@@H]1COCCN1c1cc(C2([S@](C)(=N)=O)CC2)nc(-c2cc[nH]c3nccc2-3)n1 [Ceralasertib]
EC50 ([1]; PANC-1, 72 h, read-out: EC50 mean [nM], PANC-1, experiment ATRi (ATR inhibitor alone)): 10500 nM
EC50 ([1]; PANC-1, read-out: EC50 mean [nM], PANC-1, experiment ATRi (ATR inhibitor alone)): 10500 nM
EC50 ([1]; PANC-1, read-out: EC50 mean [nM], PANC-1, experiment GEM+ATRi_dose1): 12 nM
EC50 ([1]; PANC-1, read-out: EC50 mean [nM], PANC-1, experiment GEM+ATRi_dose2): 22 nM
EC50 ([1]; PANC-1, read-out: EC50 mean [nM], PANC-1, experiment GEM+ATRi_dose3): 14.5 nM
Curve top ([1]; experiment GEM+ATRi_dose1): 0.75 and 0.55 and 0.69
Curve top ([1]; experiment GEM+ATRi_dose2): 0.69 and 0.59 and 0.62
Curve top ([1]; experiment GEM+ATRi_dose3): 0.55 and 0.43 and 0.50
Curve slope [2, 3]: 2.93 and 3.34 and 3.10
Curve bottom [2, 3]: 1.16 and 0.93 and 0.99
Curve top [2, 3]: 0.45 and 0.34 and 0.35
Curve slope [2, 4]: 1.26 and 1.52 and 1.58
Curve bottom [2, 4]: 1.03 and 0.96 and 0.97
Curve top [2, 4]: 0.53 and 0.41 and 0.45
Curve bottom [2, 5]: 1.06 and 0.94 and 0.90
Curve top [2, 5]: 0.50 and 0.38 and 0.42
Curve slope [2, 6]: 1.68 and 1.97
Curve bottom [2, 6]: 0.98
Curve top [2, 6]: 0.46 and 0.35 and 0.39
Raw data (confluence at 72 h/confluence at 0 h) ([2]; Ceralasertib experiment, replicate R1, titrated drug dose 3 nM): 3.36
Raw data (confluence at 72 h/confluence at 0 h) ([2]; Ceralasertib experiment, replicate R1, titrated drug dose 10 nM): 3.44
Raw data (confluence at 72 h/confluence at 0 h) ([2]; Ceralasertib experiment, replicate R1, titrated drug dose 30 nM): 3.6
Raw data (confluence at 72 h/confluence at 0 h) ([2]; Ceralasertib experiment, replicate R1, titrated drug dose 100 nM): 3.35
Raw data (confluence at 72 h/confluence at 0 h) ([2]; Ceralasertib experiment, replicate R1, titrated drug dose 300 nM): 3.69
Raw data (confluence at 72 h/confluence at 0 h) ([2]; Ceralasertib experiment, replicate R1, titrated drug dose 1000 nM): 3.19
Raw data (confluence at 72 h/confluence at 0 h) ([2]; Ceralasertib experiment, replicate R1, titrated drug dose 3000 nM): 1.77
Raw data (confluence at 72 h/confluence at 0 h) ([2]; Ceralasertib experiment, replicate R1, titrated drug dose 10000 nM): 1.38
Raw data (confluence at 72 h/confluence at 0 h) ([2]; Ceralasertib experiment, replicate R2, titrated drug dose 3 nM): 3.66
Raw data (confluence at 72 h/confluence at 0 h) ([2]; Ceralasertib experiment, replicate R2, titrated drug dose 10 nM): 3.73
Raw data (confluence at 72 h/confluence at 0 h) ([2]; Ceralasertib experiment, replicate R2, titrated drug dose 30 nM): 3.9
Raw data (confluence at 72 h/confluence at 0 h) ([2]; Ceralasertib experiment, replicate R2, titrated drug dose 100 nM): 2.91
Raw data (confluence at 72 h/confluence at 0 h) ([2]; Ceralasertib experiment, replicate R2, titrated drug dose 300 nM): 3.91
Raw data (confluence at 72 h/confluence at 0 h) ([2]; Ceralasertib experiment, replicate R2, titrated drug dose 1000 nM): 3.25
Raw data (confluence at 72 h/confluence at 0 h) ([2]; Ceralasertib experiment, replicate R2, titrated drug dose 3000 nM): 1.61
Response ([2]; GEM 0 nM, ATRi 100 nM): 3.13
Response ([2]; GEM 0 nM, ATRi 300 nM): 3.19
Response ([2]; GEM 0 nM, ATRi 1000 nM): 3.06
Response ([2]; GEM 1 nM + ATRi 100 nM): 3.00
Response ([2]; GEM 1 nM + ATRi 300 nM): 3.18
Response ([2]; GEM 1 nM + ATRi 1000 nM): 2.76
Response ([2]; GEM 3 nM + ATRi 100 nM): 3.15
Response ([2]; GEM 3 nM + ATRi 300 nM): 3.26
Response ([2]; GEM 3 nM + ATRi 1000 nM): 2.99
Response ([2]; GEM 10 nM + ATRi 100 nM): 2.74
Response ([2]; GEM 10 nM + ATRi 300 nM): 3.12
Response ([2]; GEM 10 nM + ATRi 1000 nM): 2.13
Response ([2]; GEM 30 nM + ATRi 100 nM): 2.24
Response ([2]; GEM 30 nM + ATRi 300 nM): 2.10
Response ([2]; GEM 100 nM + ATRi 100 nM): 1.89
Response ([2]; GEM 100 nM + ATRi 1000 nM): 1.42
Response ([2]; GEM 300 nM + ATRi 100 nM): 1.67
Response ([2]; GEM 300 nM + ATRi 300 nM): 1.55
Response ([2]; GEM 1000 nM + ATRi 100 nM): 1.60
Response ([2]; GEM 1000 nM + ATRi 300 nM): 1.47
Response ([2]; GEM 3000 nM + ATRi 100 nM): 1.61
Response ([2]; GEM 3000 nM + ATRi 300 nM): 1.44
pEC50 ([2]; ASPC1, 72 h, AsPC1, Experiment ATRi (ATR inhibitor alone), single replicates R1-R3): 5.74
pEC50 ([2]; ASPC1, 72 h, read-out: EC50 (cell growth), ATR inhibitor as single agent): 5.76
EC50 ([2]; ASPC1, 72 h, read-out: EC50 mean [nM], AsPC1, Experiment ATRi (ATR inhibitor alone), mean of replicates): 1720 nM
EC50 ([2]; ASPC1, 72 h, read-out: pEC50, AsPC1 (converted), Experiment ATRi (ATR inhibitor alone), single replicates R1-R3): 1820 nM
EC50 ([2]; ASPC1, read-out: EC50 mean [nM], AsPC1, Experiment ATRi (ATR inhibitor alone), mean of replicates): 1720 nM
Response ([2]; experiment ATRi, GEM 0 nM, ATRi 100 nM, AsPC1, replicates R2, R3): 1.95
Response ([2]; experiment GEM+ATRi_dose1, GEM 0 nM, ATRi 100 nM, AsPC1, replicates R2, R3): 3.76 and 3.38
Response ([2]; experiment GEM+ATRi_dose1, GEM 1 nM, ATRi 100 nM, AsPC1, replicates R2, R3): 3.75 and 3.44
Response ([2]; experiment GEM+ATRi_dose1, GEM 3 nM, ATRi 100 nM, AsPC1, replicates R2, R3): 3.76 and 3.47
Response ([2]; experiment GEM+ATRi_dose1, GEM 10 nM, ATRi 100 nM, AsPC1, replicates R2, R3): 3.43
Response ([2]; experiment GEM+ATRi_dose1, GEM 30 nM, ATRi 100 nM, AsPC1, replicates R2, R3): 2.86 and 2.80
Response ([2]; experiment GEM+ATRi_dose1, GEM 100 nM, ATRi 100 nM, AsPC1, replicates R2, R3): 1.90 and 2.07
Response ([2]; experiment GEM+ATRi_dose1, GEM 300 nM, ATRi 100 nM, AsPC1, replicates R2, R3): 1.72 and 1.75
Response ([2]; experiment GEM+ATRi_dose1, GEM 1000 nM, ATRi 100 nM, AsPC1, replicates R2, R3): 1.62 and 1.67
Response ([2]; experiment GEM+ATRi_dose1, GEM 3000 nM, ATRi 100 nM, AsPC1, replicates R2, R3): 1.55 and 1.53
Response ([2]; experiment GEM+ATRi_dose2, GEM 0 nM, ATRi 300 nM, AsPC1, replicates R2, R3): 3.86 and 3.56
Response ([2]; experiment GEM+ATRi_dose2, GEM 1 nM, ATRi 300 nM, AsPC1, replicates R2, R3): 3.53 and 2.33
Response ([2]; experiment GEM+ATRi_dose2, GEM 3 nM, ATRi 300 nM, AsPC1, replicates R2, R3): 3.61 and 3.55
Response ([2]; experiment GEM+ATRi_dose2, GEM 10 nM, ATRi 300 nM, AsPC1, replicates R2, R3): 3.45 and 3.38
Response ([2]; experiment GEM+ATRi_dose2, GEM 30 nM, ATRi 300 nM, AsPC1, replicates R2, R3): 2.30
Response ([2]; experiment GEM+ATRi_dose2, GEM 100 nM, ATRi 300 nM, AsPC1, replicates R2, R3): 1.61
Response ([2]; experiment GEM+ATRi_dose2, GEM 300 nM, ATRi 300 nM, AsPC1, replicates R2, R3): 1.48 and 1.53
Response ([2]; experiment GEM+ATRi_dose2, GEM 1000 nM, ATRi 300 nM, AsPC1, replicates R2, R3): 1.52 and 1.48
Response ([2]; experiment GEM+ATRi_dose2, GEM 3000 nM, ATRi 300 nM, AsPC1, replicates R2, R3): 1.45
Response ([2]; experiment GEM+ATRi_dose3, GEM 0 nM, ATRi 1000 nM, AsPC1, replicates R2, R3): 3.10 and 2.81
Response ([2]; experiment GEM+ATRi_dose3, GEM 1 nM, ATRi 1000 nM, AsPC1, replicates R2, R3): 3.14 and 2.98
Response ([2]; experiment GEM+ATRi_dose3, GEM 3 nM, ATRi 1000 nM, AsPC1, replicates R2, R3): 2.92
Response ([2]; experiment GEM+ATRi_dose3, GEM 10 nM, ATRi 1000 nM, AsPC1, replicates R2, R3): 2.52 and 2.34
Response ([2]; experiment GEM+ATRi_dose3, GEM 30 nM, ATRi 1000 nM, AsPC1, replicates R2, R3): 1.76 and 1.67
Response ([2]; experiment GEM+ATRi_dose3, GEM 100 nM, ATRi 1000 nM, AsPC1, replicates R2, R3): 1.44
Response ([2]; experiment GEM+ATRi_dose3, GEM 1000 nM, ATRi 1000 nM, AsPC1, replicates R2, R3): 1.42
Raw data (confluence at 72 h/confluence at 0 h) ([2]; titrated drug dose 3 nM, replicate R3, experiment (ATRi) Ceralasertib, AsPC-1, 72 h): 3.28
Raw data (confluence at 72 h/confluence at 0 h) ([2]; titrated drug dose 10 nM, replicate R3, experiment (ATRi) Ceralasertib, AsPC-1, 72 h): 3.61
Raw data (confluence at 72 h/confluence at 0 h) ([2]; titrated drug dose 30 nM, replicate R3, experiment (ATRi) Ceralasertib, AsPC-1, 72 h): 3.58
Raw data (confluence at 72 h/confluence at 0 h) ([2]; titrated drug dose 300 nM, replicate R3, experiment (ATRi) Ceralasertib, AsPC-1, 72 h): 3.61
Raw data (confluence at 72 h/confluence at 0 h) ([2]; titrated drug dose 1000 nM, replicate R3, experiment (ATRi) Ceralasertib, AsPC-1, 72 h): 3.17
Raw data (confluence at 72 h/confluence at 0 h) ([2]; titrated drug dose 3000 nM, replicate R3, experiment (ATRi) Ceralasertib, AsPC-1, 72 h): 1.6
Raw data (confluence at 72 h/confluence at 0 h) ([2]; titrated drug dose 10000 nM, replicate R3, experiment (ATRi) Ceralasertib, AsPC-1, 72 h): 1.25
